Active and inactive are the calls of the source.
Key:
[1] = biological target: T1, Fatty acid-binding protein, liver (Homo sapiens) (UniProt P07148); test: Displacement of 8-anilino-1-naphthalene-sulfonic acid from FABP1 (unknown origin) at 10 uM incubated for 3 mins by fluorescence based assay relative to control
T1 sequence (whole entry): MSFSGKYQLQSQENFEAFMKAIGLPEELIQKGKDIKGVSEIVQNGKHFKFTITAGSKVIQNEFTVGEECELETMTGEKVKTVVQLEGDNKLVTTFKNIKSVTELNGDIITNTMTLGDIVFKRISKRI

[2] = biological target: T2, Fatty acid-binding protein, liver (Homo sapiens, UniProt P07148); test: Displacement of 8-anilino-1-naphthalene-sulfonic acid from FABP1 (unknown origin) incubated for 3 mins by fluorescence based assay
T2 sequence (P07148 whole entry): T1 sequence (whole entry)

[3] = Metabolic stability in Sprague-Dawley rat liver microsomes assessed as parent compound remaining incubated for 1 hr by LC-MS analysis; assay type: ADME, Microsome; conditions: read-out: Stability
[4] = Metabolic stability in human liver microsomes assessed as parent compound remaining incubated for 1 hr by LC-MS analysis; assay type: ADME, Microsome; conditions: read-out: Stability
Vitamin D3 receptor = Vitamin D3 receptor (Homo sapiens, UniProt P11473); test: Activation of VP16-fused VDR-LBD (unknown origin) incubated for 18 hrs in presence of substrate by luciferase assay
Estrogen receptor = Estrogen receptor (Homo sapiens, UniProt P03372); test: Activation of Gal-DBD and NHRLBD fused ERalpha (unknown origin) transfected in African green monkey CV-1 cells by luciferase reporter assay; assay type: cell-based
Estrogen receptor beta = Estrogen receptor beta (Homo sapiens, UniProt Q92731); test: Activation of Gal-DBD and NHRLBD fused ERbeta (unknown origin) transfected in African green monkey CV-1 cells by luciferase reporter assay; assay type: cell-based
[5] = biological target: Mineralocorticoid receptor (Homo sapiens, UniProt P08235); test: Activation of Gal-DBD and NHRLBD fused MR (unknown origin) transfected in African green monkey CV-1 cells by luciferase reporter assay; assay type: cell-based
Glucocorticoid receptor = Glucocorticoid receptor (Homo sapiens, UniProt P04150); test: Activation of Gal-DBD and NHRLBD fused GR (unknown origin) transfected in African green monkey CV-1 cells by luciferase reporter assay; assay type: cell-based
[6] = biological target: Free fatty acid receptor 1 (Homo sapiens, UniProt O14842); test: Agonist activity at human FFA1 stably expressed in CHO cells assessed as intracellular calcium flux by FLIPR assay; assay type: functional, cell-based
[7] = Inhibition of PPARbeta/delta (unknown origin) transfected in HepG2 cells incubated for 18 hrs in presence of GW0742 by dual luciferase reporter assay; conditions: Homo sapiens, HepG2, 18 h
[8] = Drug concentration in C57BL/6 mouse liver at 20 mg/kg, po administered for 5 days and measured after 1 hr post final dose by LC-MS analysis; assay type: ADME, organism-based; conditions: time 5 day, read-out: Ct
[9] = biological target: T3, Bile acid receptor (Mus musculus) (UniProt Q60641); test: Activation of FXR in C57BL/6 mouse ileum assessed as upregulation of OST-beta gene expression at 20 mg/kg, po administered for 5 days and measured after 1 hr post final dose by RT-PCR analysis; assay type: organism-based; conditions: filed as activator, time 5.0 day
T3 sequence (whole entry): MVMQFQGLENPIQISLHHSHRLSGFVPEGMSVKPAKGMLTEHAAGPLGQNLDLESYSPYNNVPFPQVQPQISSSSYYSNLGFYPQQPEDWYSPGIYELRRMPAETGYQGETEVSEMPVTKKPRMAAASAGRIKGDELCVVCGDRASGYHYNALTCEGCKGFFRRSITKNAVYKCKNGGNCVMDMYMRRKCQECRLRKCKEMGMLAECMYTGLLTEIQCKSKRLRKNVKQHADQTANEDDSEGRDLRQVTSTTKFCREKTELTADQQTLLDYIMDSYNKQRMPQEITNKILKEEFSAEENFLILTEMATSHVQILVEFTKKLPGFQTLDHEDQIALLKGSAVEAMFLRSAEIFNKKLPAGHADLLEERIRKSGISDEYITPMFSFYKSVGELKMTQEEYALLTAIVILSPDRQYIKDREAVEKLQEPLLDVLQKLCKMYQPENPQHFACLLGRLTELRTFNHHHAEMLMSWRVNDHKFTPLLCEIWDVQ

Mus musculus [10] = test: Anti-NASH activity in western diet and CCl4-induced nonalcoholic steatohepatitis C57BL/6 mouse assessed as reduction in liver weight ratio at 20 mg/kg, po administered for 12 weeks starting from week 8 and change in dose for every 5 days; assay type: functional, organism-based; conditions: time 4.0 weeks
Mus musculus [11] = test: Anti-NASH activity in western diet and CCl4-induced nonalcoholic steatohepatitis C57BL/6 mouse assessed as alleviation of lobular inflammation at 20 mg/kg, po administered for 12 weeks starting from week 8 and change in dose for every 5 days; assay type: functional, organism-based; conditions: time 4.0 weeks
Mus musculus [12] = test: Anti-NASH activity in western diet and CCl4-induced nonalcoholic steatohepatitis C57BL/6 mouse assessed as alleviation of ballooning at 20 mg/kg, po administered for 12 weeks starting from week 8 and change in dose for every 5 days; assay type: functional, organism-based; conditions: time 4.0 weeks
Mus musculus [13] = test: Anti-NASH activity in western diet and CCl4-induced nonalcoholic steatohepatitis C57BL/6 mouse assessed as reduction in IL6 level at 20 mg/kg, po administered for 12 weeks starting from week 8 and change in dose for every 5 days by ELISA; assay type: functional, organism-based; conditions: time 4.0 weeks
[14] = biological target: T3, Bile acid receptor (Mus musculus); test: In vivo activation of FXR pathway in western diet and CCl4-induced nonalcoholic steatohepatitis C57BL/6 mouse model assessed as upregulation of OST-beta gene expression in ileum at 20 mg/kg, po administered for 12 weeks starting from week 8 and change in dose for every 5 days by RT-PCR analysis; assay type: functional, organism-based; conditions: time 4.0 weeks
[15] = Subacute toxicity in ICR mouse assessed as animal death at 500 mg/kg/day, po administered for 14 days; assay type: organism-based; conditions: in vivo, 336 h, time 14 day
[16] = Subacute toxicity in ICR mouse assessed as changes in food intake at 500 mg/kg/day, po administered for 14 days; assay type: organism-based; conditions: in vivo, 336 h, time 14 day
[17] = Subacute toxicity in ICR mouse assessed as changes in animal growth at 500 mg/kg/day, po administered for 14 days; assay type: organism-based; conditions: in vivo, 336 h, time 14 day
[18] = Subacute toxicity in ICR mouse assessed as changes in serum AST level at 500 mg/kg/day, po administered for 14 days; assay type: organism-based; conditions: in vivo, 336 h, time 14 day
[19] = Subacute toxicity in ICR mouse assessed as changes in serum DBIL level at 500 mg/kg/day, po administered for 14 days; assay type: organism-based; conditions: in vivo, 336 h, time 14 day
[20] = Subacute toxicity in ICR mouse assessed as changes in serum UA level at 500 mg/kg/day, po administered for 14 days; assay type: organism-based; conditions: in vivo, 336 h, time 14 day
[21] = Subacute toxicity in ICR mouse assessed as reduction in serum ALP level at 500 mg/kg/day, po administered for 14 days; assay type: organism-based; conditions: in vivo, 336 h, time 14 day

Glucocorticoid receptor, sequence (P04150 whole entry, the tested form may be a part): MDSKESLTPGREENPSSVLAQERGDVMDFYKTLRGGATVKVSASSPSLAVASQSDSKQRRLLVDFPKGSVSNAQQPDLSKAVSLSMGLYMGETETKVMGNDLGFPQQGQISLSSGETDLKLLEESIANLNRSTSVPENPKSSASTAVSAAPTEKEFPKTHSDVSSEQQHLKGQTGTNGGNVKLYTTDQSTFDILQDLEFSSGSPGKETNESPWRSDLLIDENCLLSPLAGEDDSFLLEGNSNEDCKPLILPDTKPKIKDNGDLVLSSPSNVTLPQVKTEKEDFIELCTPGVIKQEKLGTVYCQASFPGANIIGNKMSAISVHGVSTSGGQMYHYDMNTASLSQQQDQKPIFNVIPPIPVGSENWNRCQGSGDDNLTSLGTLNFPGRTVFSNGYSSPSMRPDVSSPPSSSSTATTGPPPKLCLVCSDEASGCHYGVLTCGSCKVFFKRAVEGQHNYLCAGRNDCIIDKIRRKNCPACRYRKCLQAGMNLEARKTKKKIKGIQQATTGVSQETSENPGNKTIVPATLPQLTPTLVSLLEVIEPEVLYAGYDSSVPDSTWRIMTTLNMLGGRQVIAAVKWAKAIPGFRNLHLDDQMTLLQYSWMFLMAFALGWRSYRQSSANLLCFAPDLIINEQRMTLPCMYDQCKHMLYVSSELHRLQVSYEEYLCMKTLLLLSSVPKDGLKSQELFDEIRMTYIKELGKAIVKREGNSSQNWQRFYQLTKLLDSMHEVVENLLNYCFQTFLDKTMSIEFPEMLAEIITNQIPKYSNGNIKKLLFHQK
Estrogen receptor, sequence (P03372 whole entry, the tested form may be a part): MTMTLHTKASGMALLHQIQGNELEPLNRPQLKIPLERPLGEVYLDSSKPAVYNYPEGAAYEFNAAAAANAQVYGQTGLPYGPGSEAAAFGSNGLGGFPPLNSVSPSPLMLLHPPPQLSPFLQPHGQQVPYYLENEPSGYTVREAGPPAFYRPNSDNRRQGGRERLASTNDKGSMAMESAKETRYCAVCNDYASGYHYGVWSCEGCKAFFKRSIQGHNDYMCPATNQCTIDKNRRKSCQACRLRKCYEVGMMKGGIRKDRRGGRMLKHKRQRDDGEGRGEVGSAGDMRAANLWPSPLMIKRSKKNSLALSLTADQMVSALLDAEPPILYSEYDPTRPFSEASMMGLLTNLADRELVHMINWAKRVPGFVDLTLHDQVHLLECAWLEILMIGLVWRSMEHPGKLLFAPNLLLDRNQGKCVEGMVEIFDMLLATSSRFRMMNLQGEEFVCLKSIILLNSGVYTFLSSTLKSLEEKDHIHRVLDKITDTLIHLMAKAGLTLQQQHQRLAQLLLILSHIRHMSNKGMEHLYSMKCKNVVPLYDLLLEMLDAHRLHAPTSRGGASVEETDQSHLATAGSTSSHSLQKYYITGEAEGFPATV
Vitamin D3 receptor, sequence (P11473 whole entry, the tested form may be a part): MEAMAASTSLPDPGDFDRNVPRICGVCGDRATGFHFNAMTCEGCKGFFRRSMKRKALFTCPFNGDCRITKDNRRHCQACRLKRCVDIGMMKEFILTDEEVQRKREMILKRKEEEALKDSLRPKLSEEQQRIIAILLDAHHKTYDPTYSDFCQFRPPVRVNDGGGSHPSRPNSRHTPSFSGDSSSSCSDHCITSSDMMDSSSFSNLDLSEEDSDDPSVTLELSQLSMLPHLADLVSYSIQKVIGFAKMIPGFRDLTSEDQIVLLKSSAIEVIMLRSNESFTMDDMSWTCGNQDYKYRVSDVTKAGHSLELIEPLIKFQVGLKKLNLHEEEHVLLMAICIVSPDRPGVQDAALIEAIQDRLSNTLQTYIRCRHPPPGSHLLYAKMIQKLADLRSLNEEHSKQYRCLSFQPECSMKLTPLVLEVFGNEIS
Free fatty acid receptor 1, sequence (O14842 whole entry): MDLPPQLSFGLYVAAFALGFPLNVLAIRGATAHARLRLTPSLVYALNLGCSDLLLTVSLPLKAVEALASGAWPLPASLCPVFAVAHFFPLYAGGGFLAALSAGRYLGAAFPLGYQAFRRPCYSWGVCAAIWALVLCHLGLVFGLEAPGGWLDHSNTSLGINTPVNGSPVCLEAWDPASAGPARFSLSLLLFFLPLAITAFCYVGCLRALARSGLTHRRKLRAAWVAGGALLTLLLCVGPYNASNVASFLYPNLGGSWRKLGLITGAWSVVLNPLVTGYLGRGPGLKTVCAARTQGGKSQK
Estrogen receptor beta, sequence (Q92731 whole entry, the tested form may be a part): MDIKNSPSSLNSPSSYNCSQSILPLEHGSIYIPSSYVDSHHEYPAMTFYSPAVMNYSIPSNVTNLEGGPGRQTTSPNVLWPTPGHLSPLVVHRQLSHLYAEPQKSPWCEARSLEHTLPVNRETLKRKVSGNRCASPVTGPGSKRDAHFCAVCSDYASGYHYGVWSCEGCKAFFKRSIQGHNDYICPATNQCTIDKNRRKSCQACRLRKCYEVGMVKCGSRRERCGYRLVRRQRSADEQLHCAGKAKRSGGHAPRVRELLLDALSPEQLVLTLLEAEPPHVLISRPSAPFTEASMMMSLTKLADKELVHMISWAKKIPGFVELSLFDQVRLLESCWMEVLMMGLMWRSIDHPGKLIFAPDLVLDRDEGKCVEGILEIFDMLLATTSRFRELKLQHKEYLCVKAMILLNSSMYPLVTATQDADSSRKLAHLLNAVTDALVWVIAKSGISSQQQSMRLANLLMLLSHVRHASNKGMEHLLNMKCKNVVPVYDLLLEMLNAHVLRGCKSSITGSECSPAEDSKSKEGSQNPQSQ
Mineralocorticoid receptor, sequence (P08235 whole entry, the tested form may be a part): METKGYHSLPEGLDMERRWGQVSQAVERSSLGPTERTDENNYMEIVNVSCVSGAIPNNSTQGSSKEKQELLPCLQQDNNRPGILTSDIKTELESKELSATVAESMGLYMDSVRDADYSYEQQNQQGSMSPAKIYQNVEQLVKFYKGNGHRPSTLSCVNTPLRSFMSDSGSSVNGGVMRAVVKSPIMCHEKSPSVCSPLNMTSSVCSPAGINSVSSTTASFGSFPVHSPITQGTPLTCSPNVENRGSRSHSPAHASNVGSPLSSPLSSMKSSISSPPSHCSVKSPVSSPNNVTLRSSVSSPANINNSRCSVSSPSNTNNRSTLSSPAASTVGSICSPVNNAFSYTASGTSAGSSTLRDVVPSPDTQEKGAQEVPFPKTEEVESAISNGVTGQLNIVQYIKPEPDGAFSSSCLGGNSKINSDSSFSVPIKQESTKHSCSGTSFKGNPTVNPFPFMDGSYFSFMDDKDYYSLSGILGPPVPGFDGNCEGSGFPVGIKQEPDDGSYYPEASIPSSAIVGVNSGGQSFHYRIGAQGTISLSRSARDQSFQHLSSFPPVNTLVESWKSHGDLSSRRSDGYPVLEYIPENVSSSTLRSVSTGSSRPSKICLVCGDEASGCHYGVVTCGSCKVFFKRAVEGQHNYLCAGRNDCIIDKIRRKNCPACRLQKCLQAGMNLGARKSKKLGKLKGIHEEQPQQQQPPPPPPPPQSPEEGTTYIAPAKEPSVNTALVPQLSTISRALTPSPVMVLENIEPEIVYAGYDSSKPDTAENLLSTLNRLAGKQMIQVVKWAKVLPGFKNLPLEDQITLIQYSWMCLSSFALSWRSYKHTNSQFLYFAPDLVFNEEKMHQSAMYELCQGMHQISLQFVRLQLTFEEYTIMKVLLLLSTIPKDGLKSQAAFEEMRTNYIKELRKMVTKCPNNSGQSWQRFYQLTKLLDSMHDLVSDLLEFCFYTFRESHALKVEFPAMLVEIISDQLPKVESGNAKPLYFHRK

O=C(O)C1(c2cccc(-c3ccc(OCc4c(-c5c(Cl)cccc5Cl)noc4C4CC4)cc3)c2)CC1
71.6%: remaining at 1 h [4]
68.6%: remaining at 1 h [3]
active: Activity [9] | Activity (Mus musculus [10]) | Activity (Mus musculus [11]) | Activity (Mus musculus [12]) | Activity (Mus musculus [13]) | Activity [14]
> 10 µM: EC50 (Vitamin D3 receptor) | EC50 (Estrogen receptor) | EC50 (Estrogen receptor beta) | EC50 [5] | EC50 (Glucocorticoid receptor) | EC50 [6] | IC50 [7]
2.7 µM: IC50 [2]
83.6%: inhibition [1]
37.2 ng/g: concentration at 120 h [8]
Non-Toxic: Activity [15] | Activity [16] | Activity [17] | Activity [18] | Activity [19] | Activity [20] | Activity [21]

From ChEMBL document CHEMBL5338751, “Discovery of the First-in-Class Intestinal Restricted FXR and FABP1 Dual Modulator ZLY28 for the Treatment of Nonalcoholic Fatty Liver Disease” (J Med Chem, 2023)
